Results taken from ChEMBL document CHEMBL1153912, “Antiproliferative effects of peracetylated naphthoxylosides” (Bioorg Med Chem Lett, 2009).
pEC50: −log10 of the molar value.

How the values were obtained:
[1] = Antiproliferative activity against human HFL1 cells after 96 hrs by crystal violet assay; assay type: cell-based; settings: read-out: ED50
T-24 [2] = assay: Antiproliferative activity against human T24 cells after 96 hrs by crystal violet assay; assay type: functional; settings: T-24, 96 h, read-out: ED50 (the source's name)
HFL1 = assay: Induction of glycosaminoglycan synthesis priming in human HFL1 cells assessed as ratio of fractions containing free glycosaminoglycan chains in drug to untreated control; assay type: cell-based; further: test concentration or dose not given here
T-24 [3] = assay: Induction of glycosaminoglycan synthesis priming in human T24 cells assessed as ratio of fractions containing free glycosaminoglycan chains in drug to untreated control; assay type: functional; further: test concentration or dose not given here

Row | Ratio (HFL1) | Compound | GI50 at 96 h [1] | pEC50 (T-24 [2]) | Ratio (T-24 [3])
1 | 2.4 | CC(=O)O[C@@H]1[C@@H](OC(C)=O)[C@H](Oc2cccc3cccc(O[C@@H]4OC[C@@H](OC(C)=O)[C@H](OC(C)=O)[C@H]4OC(C)=O)c23)OC[C@H]1OC(C)=O | 20 µM | 3.72 | 1.7
2 | 0.8 | CC(=O)O[C@@H]1[C@@H](OC(C)=O)[C@H](Oc2ccc3ccccc3c2O[C@@H]2OC[C@@H](OC(C)=O)[C@H](OC(C)=O)[C@H]2OC(C)=O)OC[C@H]1OC(C)=O | 5 µM | 4.60 | 1.4
3 | 2.8 | CC(=O)O[C@@H]1[C@@H](OC(C)=O)[C@H](Oc2cc3ccccc3cc2O[C@@H]2OC[C@@H](OC(C)=O)[C@H](OC(C)=O)[C@H]2OC(C)=O)OC[C@H]1OC(C)=O | 30 µM | 3.66 | 4.2
4 | 4.7 | CC(=O)O[C@@H]1[C@@H](OC(C)=O)[C@H](Oc2cc(O[C@@H]3OC[C@@H](OC(C)=O)[C@H](OC(C)=O)[C@H]3OC(C)=O)c3ccccc3c2)OC[C@H]1OC(C)=O | 20 µM | 4.40 | 3.4
5 | 12.7 | CC(=O)O[C@@H]1[C@@H](OC(C)=O)[C@H](Oc2ccc3c(O[C@@H]4OC[C@@H](OC(C)=O)[C@H](OC(C)=O)[C@H]4OC(C)=O)cccc3c2)OC[C@H]1OC(C)=O | 160 µM | 4.00 | 8.8
6 | 2.2 | CC(=O)Oc1cc2ccccc2cc1O[C@@H]1OC[C@@H](OC(C)=O)[C@H](OC(C)=O)[C@H]1OC(C)=O | 75 µM | 3.59 | 4.6
7 | 1.8 | CC(=O)Oc1ccc2c(O[C@@H]3OC[C@@H](OC(C)=O)[C@H](OC(C)=O)[C@H]3OC(C)=O)cccc2c1 | 80 µM | 3.96 | 6.4
8 | 6.2 | CC(=O)Oc1ccc2cccc(O[C@@H]3OC[C@@H](OC(C)=O)[C@H](OC(C)=O)[C@H]3OC(C)=O)c2c1 | 80 µM | 3.77 | 8.2
9 | 2.1 | CC(=O)Oc1cccc2ccc(O[C@@H]3OC[C@@H](OC(C)=O)[C@H](OC(C)=O)[C@H]3OC(C)=O)cc12 | 65 µM | 4.12 | 4.8
10 | 2.7 | CC(=O)Oc1cccc2c(O[C@@H]3OC[C@@H](OC(C)=O)[C@H](OC(C)=O)[C@H]3OC(C)=O)cccc12 | 90 µM | 3.77 | 6.1
11 | 4.8 | CC(=O)Oc1ccc(O[C@@H]2OC[C@@H](OC(C)=O)[C@H](OC(C)=O)[C@H]2OC(C)=O)c2ccccc12 | 80 µM | 3.89 | 9
12 | 2.2 | CC(=O)Oc1ccc2ccc(O[C@@H]3OC[C@@H](OC(C)=O)[C@H](OC(C)=O)[C@H]3OC(C)=O)cc2c1 | 85 µM | 3.72 | 6.5
13 | 1.8 | CC(=O)Oc1c(O[C@@H]2OC[C@@H](OC(C)=O)[C@H](OC(C)=O)[C@H]2OC(C)=O)ccc2ccccc12 | 110 µM | 3.60 | 7.1
14 | 2.2 | CC(=O)Oc1cc(O[C@@H]2OC[C@@H](OC(C)=O)[C@H](OC(C)=O)[C@H]2OC(C)=O)c2ccccc2c1 | 20 µM | 4.60 | 4.5
15 | 5.4 | CC(=O)O[C@@H]1[C@@H](OC(C)=O)[C@H](Oc2cccc3c(O[C@@H]4OC[C@@H](OC(C)=O)[C@H](OC(C)=O)[C@H]4OC(C)=O)cccc23)OC[C@H]1OC(C)=O | 10 µM | 3.77 | 6.9
16 | 15.5 | CC(=O)O[C@@H]1[C@@H](OC(C)=O)[C@H](Oc2ccc3cc(O[C@@H]4OC[C@@H](OC(C)=O)[C@H](OC(C)=O)[C@H]4OC(C)=O)ccc3c2)OC[C@H]1OC(C)=O | 55 µM | 3.49 | 8.2
17 | 13.6 | CC(=O)O[C@@H]1[C@@H](OC(C)=O)[C@H](Oc2ccc(O[C@@H]3OC[C@@H](OC(C)=O)[C@H](OC(C)=O)[C@H]3OC(C)=O)c3ccccc23)OC[C@H]1OC(C)=O | 15 µM | 3.85 | 8
18 | 6.4 | CC(=O)O[C@@H]1[C@@H](OC(C)=O)[C@H](Oc2ccc3ccc(O[C@@H]4OC[C@@H](OC(C)=O)[C@H](OC(C)=O)[C@H]4OC(C)=O)cc3c2)OC[C@H]1OC(C)=O | 65 µM | 4.22 | 5.4
19 | 11.1 | CC(=O)O[C@@H]1[C@@H](OC(C)=O)[C@H](Oc2ccc3cccc(O[C@@H]4OC[C@@H](OC(C)=O)[C@H](OC(C)=O)[C@H]4OC(C)=O)c3c2)OC[C@H]1OC(C)=O | 135 µM | 3.96 | 0.5
20 | 1.3 | CC(=O)Oc1cccc2cc(O[C@@H]3OC[C@@H](OC(C)=O)[C@H](OC(C)=O)[C@H]3OC(C)=O)ccc12 | 100 µM | 4.19 | 6.9
21 | 2.5 | CC(=O)Oc1ccc2cc(O[C@@H]3OC[C@@H](OC(C)=O)[C@H](OC(C)=O)[C@H]3OC(C)=O)ccc2c1 | 80 µM | 4.35 | 5.4
22 | 0.8 | CC(=O)Oc1cccc2cccc(O[C@@H]3OC[C@@H](OC(C)=O)[C@H](OC(C)=O)[C@H]3OC(C)=O)c12 | 110 µM | 3.69 | 2.4
23 | 0.6 | CC(=O)Oc1ccc2ccccc2c1O[C@@H]1OC[C@@H](OC(C)=O)[C@H](OC(C)=O)[C@H]1OC(C)=O | 65 µM | 3.77 | 0.5
24 | 1 | CC(=O)Oc1cc(O[C@@H]2OC[C@@H](OC(C)=O)[C@H](OC(C)=O)[C@H]2OC(C)=O)cc2ccccc12 | 60 µM | 4.19 | 3.7
